According to ChEMBL document CHEMBL4765472, “Tenofovir-Amino Acid Conjugates Act as Polymerase Substrates-Implications for Avoiding Cellular Phosphorylation in the Discovery of Nucleotide Analogues” (J Med Chem, 2021):
Activity calls are given as the source filed them. The calls are words filed in the database; no cut-off is given here.

How the values were obtained:
[1] = test system: Human immunodeficiency virus 1; assay: Substrate activity at HIV1 reverse transcriptase assessed as incorporation of compound into growing DNA strand at 500 uM incubated for 1 hr using primer and template in presence of MgCl2 by gel based nucleotide incorporation assay
[2] = test system: Human immunodeficiency virus 1; assay: Inhibition of HIV1 reverse transcriptase assessed as reduction in dsDNA synthesis at 2.5 mM incubated for 1 hr by PicoGreen-based spectrophotometric assay
[3] = test system: Human immunodeficiency virus 1; assay: Substrate activity at HIV1 reverse transcriptase assessed as incorporation of compound into growing DNA strand at 500 uM incubated for 1 hr using primer and template in presence of MnCl2 by gel based nucleotide incorporation assay
[4] = test system: Human immunodeficiency virus 1; assay: Substrate activity at HIV1 reverse transcriptase assessed as incorporation of compound into growing DNA strand at 500 to 1000 uM incubated for 1 hr using primer and template in presence of MgCl2 by gel based nucleotide incorporation assay; conditions: dose 500-1000 µM
[5] = test system: Human immunodeficiency virus 1; assay: Substrate activity at HIV1 reverse transcriptase assessed as incorporation of compound into growing DNA strand at 500 to 1000 uM incubated for 1 hr using primer and template in presence of MnCl2 by gel based nucleotide incorporation assay; conditions: dose 500-1000 µM
[6] = test system: Human immunodeficiency virus 1; assay: Substrate activity at HIV1 reverse transcriptase assessed as incorporation of compound into growing DNA strand at 1 mM incubated for 1 hr using primer and template in presence of MnCl2 by gel based nucleotide incorporation assay
[7] = Inhibition of HIV1 reverse transcriptase assessed as reduction in dsDNA synthesis incubated for 1 hr by PicoGreen-based spectrophotometric assay; design: species or system Human immunodeficiency virus 1

Compound | Activity [1] | inhibition (active/not active) [2] | Activity [4] | Activity [5] | Activity [6] | further results
C[C@H](Cn1cnc2c(N)ncnc21)OCP(=O)(O)N[C@H](CC(=O)O)C(=O)O | Active | inactive |  |  |  | 
C[C@H](Cn1cnc2c(N)ncnc21)OCP(=O)(O)N[C@@H](CCC(=O)O)C(=O)O | 26.8% | inactive |  |  |  | Activity [3]: 40.8%
Nc1ncnc2c1ncn2[C@H]1C[C@H](O)[C@@H](COP(=O)(O)N[C@@H](Cc2ccccc2)C(=O)O)O1 |  | inactive | inactive | inactive |  | 
C[C@H](Cn1cnc2c(N)ncnc21)OCP(=O)(O)N[C@@H](Cc1c[nH]cn1)C(=O)O |  | inactive |  |  | Active | 
N=C(N)NCCC[C@H](NP(=O)(O)OC[C@H]1O[C@@H](n2cnc3c(N)ncnc32)C[C@@H]1O)C(=O)O |  | inactive | inactive | inactive |  | 
C[C@H](Cn1cnc2c(N)ncnc21)OCP(=O)(O)O | inactive |  |  |  |  | 
Nc1ncnc2c1ncn2[C@H]1C[C@H](O)[C@@H](COP(=O)(O)O)O1 | Active |  |  |  |  | 
CSCC[C@H](NP(=O)(O)CO[C@H](C)Cn1cnc2c(N)ncnc21)C(=O)O |  | Active |  |  |  | IC50 [7]: 146 µM
Nc1ncnc2c1ncn2[C@H]1C[C@H](O)[C@@H](COP(=O)(O)N[C@@H](CC(=O)O)C(=O)O)O1 |  | inactive | Active | Active |  | 
C[C@H](Cn1cnc2c(N)ncnc21)OCP(=O)(O)N[C@@H](CC(=O)O)C(=O)O |  | inactive |  |  | Active | 
CSCC[C@H](NP(=O)(O)OC[C@H]1O[C@@H](n2cnc3c(N)ncnc32)C[C@@H]1O)C(=O)O |  | inactive | inactive | inactive |  | 
C[C@H](Cn1cnc2c(N)ncnc21)OCP(=O)(O)N[C@@H](Cc1ccccc1)C(=O)O |  | inactive |  |  | Active | 
C[C@H](Cn1cnc2c(N)ncnc21)OCP(=O)(O)N[C@@H](CCCNC(=N)N)C(=O)O |  | inactive |  |  | inactive | 
